Results from patent publication US5786517A, “Metal-ligand complex catalyzed processes” (Union Carbide Chemicals & Plastics Technology Corporation, priority 1996, dated 1998).

Experiments:
[1] = Extraction of base from butyraldehyde into equimolar aqueous H3PO3 (Example 5, Table A); assay type: physicochemical
Method: The following series of experiments were performed in order to determine the relationship of the pKa of a base to the effectiveness of the base to remain in the organic phase upon contact with an equimolar aqueous acid solution. In all cases the experiments were performed under nitrogen, unless otherwise specified.
Solutions were prepared by dissolving a quantity of acid or base in solvent so that the final concentration was equal to 0.1 moles/liter. The 1×10^-3 moles/liter solutions were prepared by taking an aliquot of the 0.1 moles/liter solution and diluting to the specified concentration. The 1×10^-5 moles/liter solutions were prepared in the same manner as the 1×10^-3 moles/liter solution with the modification of using an aliquot of the 1×10^-3 moles/liter solution in place of the 0.1 moles/liter solution.
In each extraction experiment, 5 milliliters of base solution in butyraldehyde was added to a clean, dry vial. To this vial was added 5 milliliters of equimolar H3 PO3 solution. The resulting mixture was rapidly shaken for several minutes and then allowed to phase separate. A 1 milliliter aliquot of the aqueous layer was then transferred to a clean, dry vial. To this vial was added 1 milliliter of pH 7 sodium/potassium phosphate buffer and 0.1 milliliter of Tergitol® 15-S-9 surfactant. The solution was shaken vigorously, and an aliquot was analyzed by high performance liquid chromatography for base content. The amount of base was then compared with a dichloromethane solution at the initial concentration. The partition coefficients calculated are for partitioning of the base from the organic phase to the water phase and is defined as K=amount of base in the water phase/amount of base in the organic phase.

[2] = Stability of Ligand F in rhodium-containing butyraldehyde solution by HPLC (Examples 2-4)
[3] = Partition of hydroxy butyl phosphonic acid between butyraldehyde and water (Example 1); assay type: physicochemical
Method: Into a glass vessel was added a stock solution of 536 parts per million of hydroxy butyl phosphonic acid in butyraldehyde. This solution was contacted with water in a weight ratio of 1.18:1 grams water to grams aldehyde/acid stock solution. The aldehyde and water phase were contacted thoroughly to allow the separation of acid between the organic and the aqueous layer to reach equilibrium. The aldehyde phase was analyzed for hydroxy butyl phosphonic acid by ion chromatography after contact with the water giving 52.3 parts per million of hydroxy butyl phosphonic acid. The water phase was also analyzed by ion chromatography for the acid. The water phase contained 414 parts per million of hydroxy butyl phosphonic acid. The partition coefficient between the water and the butyraldehyde phase was 414/52.3 or 7.92.

[4] = base 1 × 10^-3 moles/liter in butyraldehyde, H3PO3 1 × 10^-3 moles/liter
[5] = base 1 × 10^-5 moles/liter in butyraldehyde, H3PO3 1 × 10^-5 moles/liter
[6] = 536 ppm stock in butyraldehyde, 1.18:1 grams water to grams aldehyde/acid stock, ion chromatography

Row | Molecule | K (amount of base in the water phase/amount of base in the organic phase) [1, 4] | K (amount of base in the water phase/amount of base in the organic phase) [1, 5] | also measured
1 | O=C1CCCN1Cc1ccccc1 [1-benzyl-2-pyrrolidinone] | 0.02 | 0.00 | 
2 | CC(C)(C)c1cc(-c2cc(C(C)(C)C)cc(C(C)(C)C)c2Op2oc3ccccc3c3ccccc3o2)c(Op2oc3ccccc3c3ccccc3o2)c(C(C)(C)C)c1 [Ligand F] |  |  | concentration of Ligand F after 24 hours ([2]; 0.017 grams H3PO3 added to 12 gram solution, decreased from 0.39, 24 hours): 0.12 percent by weight; concentration of Ligand F after 72 hours ([2]; 0.017 grams H3PO3 added to 12 gram solution, initially 0.39, 72 hours): 0.04 percent by weight; change in concentration of Ligand F ([2]; after either 24 or 72 hours, 200 ppm rhodium, 0.39 wt% Ligand F in butyraldehyde, no added acid or benzimidazole): No change in the concentration
3 | c1ccc2[nH]nnc2c1 [benzotriazole] | 0.08 | 0.00 | 
4 | c1ccc2ncccc2c1 [quinoline] | 0.43 | 1.20 | 
5 | hydroxy butyl phosphonic acid |  |  | hydroxy butyl phosphonic acid in aldehyde phase after contact with water [3, 6]: 52.3 parts per million; hydroxy butyl phosphonic acid in water phase [3, 6]: 414 parts per million; partition coefficient between the water and the butyraldehyde phase ([3]; water/butyraldehyde, 414/52.3): 7.92
